Assay results reported in patent US20070275932A1, “Aryl, heteroaromatic and bicyclic aryl nitrone compounds, prodrugs and pharmaceutical compositions of the same to treat human disorders” (Renovis, Inc., priority 2003, published 2007).

Test: Free radical-scavenging/antioxidant assay (DPPH)
Format: biochemical
Settings: 50 μM DPPH in 80% methanol, absorbance at 520 nm, 24 h time point (steady state); read-out: EC50 (concentration at which a compound reduces by 50% the peak absorbance of DPPH at 520 nm)
Description: Nitrone compounds of the present invention were tested for their free-radical scavenging/antioxidant activity in an in vitro assay that is accepted by those skilled in the art as a model for conditions involving the generation of free radicals. The assay is based on a reaction between a free-radical donor, 2,2-diphenyl-1-picrylhydrazyl (DPPH), and a radical scavenger/antioxidant to be tested for free-radical scavenging activity. Upon donation of the free-radical electron to the purported radical scavenger, the peak visible absorbance of DPPH (515-520 nm) decreases so that optical density readings at this part of the visual spectrum reflect the progression of the following reaction: DPPH∩+AH→DPPH-H+A∩ where AH is a hypothetical radical scavenger/antioxidant. The assay is based on a protocol originally detailed in Brand-Williams, W. et al., 1995, Use of a Free Radical Method to Evaluate Antioxidant Activity, Lebensm. Wiss. Technol., 28:25-30, with further modifications described in L. R. Fukumoto and G. Mazza, 2000, Assessing Antioxidant and Prooxidant Activities of Phenolic Compounds, J. Agric. Food Chem., 48:3597-3604.
The antioxidant assay was performed using Perkin-Elmer 96-well, clear-bottom, black-wall plates (ordered from E & K Scientific Products) and a Tecan Safire absorbance plate reader. The positive controls were Trolox (6-hydroxy-2,5,7,8-tetramethylchromane-2-carboxylic acid, Sigma-Aldrich), BHA (2(3)-tert-butylhydroquinone monomethyl ether, Sigma-Aldrich), PBN (C-(phenyl)-N-(tert-butyl)nitrone, Sigma-Aldrich) and S-PBN (C-(2-sulfophenyl)-N-(tert-butyl)nitrone, sodium salt, prepared according to E. G. Janzen and R. V. Shetty, 1979, Tetrahedron Lett., 35: 3229-32), and the negative control (i.e., vehicle) was DMSO. In brief, 2 μL of 100×DMSO stock of the desired final concentration of each control or nitrone compound to be tested in the same batch was added to a separate well. To each well was then added 198 μL of a freshly made 50 μM DPPH (Sigma-Aldrich) solution in 80% methanol using a multi-channel pipette. The absorbance was immediately read on the plate reader at 520 nm and thereafter read periodically to assess kinetics until all reactions reached completion (i.e., steady state). Since the steady-state point was 24 h, the assay results are shown from the 24 h time point. The absorbance at 520 nm (OD) was plotted versus the concentrations of the controls and nitrone compounds to assess dose-response and interpolate the EC50 values of the controls and test compounds.

EC50 [µM]	Molecule
500 to 1000	COC(=O)c1ccccc1/C=[N+](\[O-])Cc1ccccc1 [Example 3, N-Benzyl-C-[2-(methoxycarbonyl)phenyl]nitrone]
100 to 500	COC(=O)c1c(/C=[N+](\[O-])C(C)(C)C)cc(OC)cc1OC [Example 4, N-(tert-Butyl)-C-[2-(methoxycarbonyl)-3,5-dimethoxyphenyl]nitrone]
10 to 100	O=C(O)c1ccccc1/C=[N+](\[O-])C1CCCCC1 [Example 8, N-Cyclohexyl-C-(2-carboxyphenyl)nitrone]
10 to 100	O=C(O)c1ccccc1/C=[N+](\[O-])Cc1ccccc1 [Example 9, N-Benzyl-C-(2-carboxyphenyl)nitrone]
10 to 100	COc1cc(/C=[N+](\[O-])Cc2ccccc2)c(C(=O)O)c(OC)c1 [Example 12, N-Benzyl-C-(2-carboxy-3,5-dimethoxyphenyl)nitrone]
> 1000	CC(C)(C)/[N+]([O-])=C/c1ccccc1-n1ccnc1 [Example 14, N-(tert-Butyl)-C-[2-(imidazol-1-yl)phenyl]nitrone]
> 1000	CC(C)(C)/[N+]([O-])=C/c1ccccc1-n1cccn1 [Example 17, N-(tert-Butyl)-C-[2-(pyrazol-1-yl)phenyl]nitrone]
> 1000	[O-]/[N+](=C\c1ccccc1-n1cccn1)C1CCCCC1 [Example 18, N-Cyclohexyl-C-[2-(pyrazol-1-yl)phenyl]nitrone]
> 1000	[O-]/[N+](=C\c1ccccc1-n1cccn1)Cc1ccccc1 [Example 19, N-Benzyl-C-[2-(pyrazol-1-yl)phenyl]nitrone]
100 to 500	[O-]/[N+](=C\c1ccccc1N1CCOCC1)C1CCCCC1 [Example 21, N-Cyclohexyl-C-[2-(1-morpholino)phenyl]nitrone]
100 to 500	CC(C)(C)/[N+]([O-])=C/c1ccccc1N1CCN(c2ccc(C(F)(F)F)cn2)CC1 [Example 23, N-(tert-Butyl)-C-{2-[4-(5-(trifluoromethyl)pyridin-2-yl)piperazin-1-yl]phenyl}nitrone]
> 1000	[O-]/[N+](=C\c1ccccc1Sc1ccc(Cl)cc1)C1CCCCC1 [Example 27, N-Cyclohexyl-C-[2-(4-chlorophenylthio)phenyl]nitrone]
100 to 500	[O-]/[N+](=C\c1ccccc1Sc1ccc(Cl)cc1)Cc1ccccc1 [Example 28, N-Benzyl-C-[2-(4-chlorophenylthio)phenyl]nitrone]
> 1000	CSc1ccc(/C=[N+](\[O-])C(C)(C)C)c(SC)c1 [Example 32, N-(tert-Butyl)-C-[2,4-bis(methylthio)phenyl]nitrone]
> 1000	CCSc1ccccc1/C=[N+](\[O-])C(C)(C)C [Example 33, N-(tert-Butyl)-C-[2-(ethylthio)phenyl]nitrone]
> 1000	CC(C)Sc1ccccc1/C=[N+](\[O-])C(C)(C)C [Example 34, N-(tert-Butyl)-C-[2-(isopropylthio)phenyl]nitrone]
> 1000	COC(=O)c1[nH]c2ccccc2c1/C=[N+](\[O-])C(C)(C)C [Example 38, N-(tert-Butyl)-C-[2-(methoxycarbonyl)-1H-indol-3-yl]nitrone]
> 1000	COC(=O)c1[nH]c2ccccc2c1/C=[N+](\[O-])Cc1ccccc1 [Example 40, N-Benzyl-C-[2-(methoxycarbonyl)-1H-indol-3-yl]nitrone]
10 to 100	CC(C)(C)/[N+]([O-])=C/c1sccc1C(=O)O [Example 41, N-(tert-Butyl)-C-(3-carboxythiophen-2-yl)nitrone]
> 1000	Cc1ccc(Sc2ncccc2/C=[N+](\[O-])C(C)(C)C)cc1 [Example 43, N-(tert-Butyl)-C-[2-(4-methylphenylthio)pyridin-3-yl]nitrone]
> 1000	[O-]/[N+](=C\c1cccnc1N1CCOCC1)Cc1ccccc1 [Example 48, N-Benzyl-C-[2-(1-morpholino)pyridin-3-yl]nitrone]

Second part, the molecule before the results:

Molecule	EC50 [µM]
2(3)-tert-butylhydroquinone monomethyl ether [BHA, reference compound]	< 10
COC(=O)c1ccccc1/C=[N+](\[O-])C(C)(C)C [Example 1, N-(tert-Butyl)-C-[2-(methoxycarbonyl)phenyl]nitrone]	500 to 1000
COC(=O)c1c(/C=[N+](\[O-])C2CCCCC2)cc(OC)cc1OC [Example 5, N-Cyclohexyl-C-[2-(methoxycarbonyl)-3,5-dimethoxyphenyl]nitrone]	100 to 500
COC(=O)c1c(/C=[N+](\[O-])Cc2ccccc2)cc(OC)cc1OC [Example 6, N-Benzyl-C-[2-(methoxycarbonyl)-3,5-dimethoxyphenyl]nitrone]	100 to 500
CC(C)(C)/[N+]([O-])=C/c1ccccc1C(=O)O [Example 7, N-(tert-Butyl)-C-(2-carboxyphenyl)nitrone]	100 to 500
COc1cc(/C=[N+](\[O-])C(C)(C)C)c(C(=O)O)c(OC)c1 [Example 10, N-(tert-Butyl)-C-(2-carboxy-3,5-dimethoxyphenyl)nitrone]	500 to 1000
COc1cc(/C=[N+](\[O-])C2CCCCC2)c(C(=O)O)c(OC)c1 [Example 11, N-Cyclohexyl-C-(2-carboxy-3,5-dimethoxyphenyl)nitrone]	10 to 100
[O-]/[N+](=C\c1ccccc1-n1ccnc1)C1CCCCC1 [Example 15, N-Cyclohexyl-C-[2-(imidazol-1-yl)phenyl]nitrone]	> 1000
[O-]/[N+](=C\c1ccccc1-n1ccnc1)Cc1ccccc1 [Example 16, N-Benzyl-C-[2-(imidazol-1-yl)phenyl]nitrone]	> 1000
CC(C)(C)/[N+]([O-])=C/c1ccccc1N1CCOCC1 [Example 20, N-(tert-Butyl)-C-[2-(1-morpholino)phenyl]nitrone]	100 to 500
[O-]/[N+](=C\c1ccccc1N1CCOCC1)Cc1ccccc1 [Example 22, N-Benzyl-C-[2-(1-morpholino)phenyl]nitrone]	> 1000
[O-]/[N+](=C\c1ccccc1N1CCN(c2ccc(C(F)(F)F)cn2)CC1)C1CCCCC1 [Example 24, N-Cyclohexyl-C-{2-[4-(5-(trifluoromethyl)pyridin-2-yl)piperazin-1-yl]phenyl}nitrone]	10 to 100
[O-]/[N+](=C\c1ccccc1N1CCN(c2ccc(C(F)(F)F)cn2)CC1)Cc1ccccc1 [Example 25, N-Benzyl-C-{2-[4-(5-(trifluoromethyl)pyridin-2-yl)piperazin-1-yl]phenyl}nitrone]	< 10
O=[N+]([O-])c1ccc(SC2CCCC2)c(/C=[N+](\[O-])C2CCCCC2)c1 [Example 30, N-Cyclohexyl-C-[2-(cyclopentylthio)-5-nitrophenyl]nitrone]	> 1000
O=[N+]([O-])c1ccc(SC2CCCC2)c(/C=[N+](\[O-])Cc2ccccc2)c1 [Example 31, N-Benzyl-C-[2-(cyclopentylthio)-5-nitrophenyl]nitrone]	500 to 1000
CSc1cc(C(F)(F)F)ccc1/C=[N+](\[O-])C(C)(C)C [Example 35, N-(tert-Butyl)-C-[2-(methylthio)-4-(trifluoromethyl)phenyl]nitrone]	> 1000
CC(C)(C)/[N+]([O-])=C/c1cc([N+](=O)[O-])ccc1Sc1ccccn1 [Example 36, N-(tert-Butyl)-C-[5-nitro-2-(pyridin-2-ylthio)phenyl]nitrone]	100 to 500
O=[N+]([O-])c1ccc(Sc2ccccn2)c(/C=[N+](\[O-])C2CCCCC2)c1 [Example 37, N-Cyclohexyl-C-[5-nitro-2-(pyridin-2-ylthio)phenyl]nitrone]	10 to 100
COC(=O)c1[nH]c2ccccc2c1/C=[N+](\[O-])C1CCCCC1 [Example 39, N-Cyclohexyl-C-[2-(methoxycarbonyl)-1H-indol-3-yl]nitrone]	> 1000
O=C(O)c1ccsc1/C=[N+](\[O-])C1CCCCC1 [Example 42, N-Cyclohexyl-C-(3-carboxythiophen-2-yl]nitrone]	100 to 500
CC(C)(C)/[N+]([O-])=C/c1cccnc1N1CCOCC1 [Example 46, N-(tert-Butyl)-C-[2-(1-morpholino)pyridin-3-yl]nitrone]	> 1000
[O-]/[N+](=C\c1cccnc1N1CCOCC1)C1CCCCC1 [Example 47, N-Cyclohexyl-C-[2-(1-morpholino)pyridin-3-yl]nitrone]	> 1000
CSc1nc2ccccc2cc1/C=[N+](\[O-])C(C)(C)C [Example 49, N-(tert-Butyl)-C-[2-(methylthio)quinolin-3-yl]nitrone]	500 to 1000
CC(C)(C)C(=O)Nc1cccc(/C=[N+](\[O-])C(C)(C)C)n1 [Example 51, N-(tert-Butyl)-C-[6-(2,2-dimethylpropanamido)pyridin-2-yl]nitrone]	> 1000
